Measured values: ChEMBL document CHEMBL5042471, “Development and Application of Subtype-Selective Fluorescent Antagonists for the Study of the Human Adenosine A1 Receptor in Living Cells” (J Med Chem, 2021)

Legend:
Adenosine receptor A1 [1] = target: T1, Adenosine receptor A1 (Homo sapiens, UniProt P30542); assay: Displacement of [3H]DPCPX from human A1 adenosine receptor expressed in Flp-In-CHO cells by radioligand competitive binding assay; assay type: cell-based
T1 sequence (P30542 whole entry): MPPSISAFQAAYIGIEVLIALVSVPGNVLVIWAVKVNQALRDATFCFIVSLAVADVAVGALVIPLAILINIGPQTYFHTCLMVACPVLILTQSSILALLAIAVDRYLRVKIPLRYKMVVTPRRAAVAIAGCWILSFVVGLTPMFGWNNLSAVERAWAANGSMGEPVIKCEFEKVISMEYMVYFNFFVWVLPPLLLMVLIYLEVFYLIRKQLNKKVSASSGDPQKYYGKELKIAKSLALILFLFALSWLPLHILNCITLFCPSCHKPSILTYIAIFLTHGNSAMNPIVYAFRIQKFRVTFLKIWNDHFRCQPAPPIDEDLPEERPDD

Adenosine receptor A1 [2] = target: T1, Adenosine receptor A1; assay: biochemical
Description: Displacement of [3H]DPCPX from human A1 adenosine receptor expressed in CHO-K1 cells by radioligand binding assay

Adenosine receptor A3 = target: T2, Adenosine receptor A3 (Homo sapiens, UniProt P0DMS8); assay: Agonist activity at A3 adenosine receptor (unknown origin); assay type: functional
T2 sequence (P0DMS8 whole entry): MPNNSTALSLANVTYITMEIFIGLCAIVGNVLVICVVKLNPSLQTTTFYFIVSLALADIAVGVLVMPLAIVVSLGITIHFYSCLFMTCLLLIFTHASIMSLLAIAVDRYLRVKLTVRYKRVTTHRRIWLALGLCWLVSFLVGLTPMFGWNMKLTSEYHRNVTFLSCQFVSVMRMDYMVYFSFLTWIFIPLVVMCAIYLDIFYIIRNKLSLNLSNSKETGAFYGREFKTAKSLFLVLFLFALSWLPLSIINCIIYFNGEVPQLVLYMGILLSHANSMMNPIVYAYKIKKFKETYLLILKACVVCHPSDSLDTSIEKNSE

| Structure (SMILES) | Ki (Adenosine receptor A1 [1]) [nM] | Ki (Adenosine receptor A1 [2]) [nM] | EC50 (Adenosine receptor A3) [nM] |
| --- | --- | --- | --- |
| CCCn1c(=O)c2[nH]c(C34CCC(CCC(=O)NCCNC(=O)COCCNC(=O)OC(C)(C)C)(CC3)CC4)nc2n(CCC)c1=O | 14.8 | – | – |
| CCCn1c(=O)c2[nH]c(C34CCC(C(=O)NCCNC(=O)COCCOCCNC(=O)OC(C)(C)C)(CC3)CC4)nc2n(CCC)c1=O | 17.4 | – | – |
| CCCn1c(=O)c2[nH]c(C34CC5CC(CC(C5)C3)C4)nc2n(CCCNC(=O)c2ccc(C(=O)NCCNC(=O)CCNC(=O)CCCCC[N+]3=C(/C=C/C=C/C=C4/N(C)c5ccc(S(=O)(=O)O)cc5C4(C)C)C(C)(C)c4cc(S(=O)(=O)[O-])ccc43)cc2)c1=O | > 10000 | – | – |
| CCCn1c(=O)c2[nH]c(C34CCC(C(=O)NCCNC(=O)CCCCC[N+]5=C(/C=C/C=C/C=C6/N(C)c7ccc(S(=O)(=O)O)cc7C6(C)C)C(C)(C)c6cc(S(=O)(=O)[O-])ccc65)(CC3)CC4)nc2n(CCC)c1=O | 851 | – | – |
| CCNC(=O)[C@H]1O[C@@H](n2cnc3c(NCCCCNC(=O)CNC(=O)[C@@H](C)NC(=O)[C@@H](C)NC(=O)CCCCCNC(=O)COc4ccc(/C=C/C5=[N+]6C(=Cc7ccc(-c8cccs8)n7[B-]6(F)F)C=C5)cc4)ncnc32)[C@H](O)[C@@H]1O | – | – | 3.31 |
| CCCn1c(=O)c2[nH]c(C34CCC(CCC(=O)NCCNC(=O)CCNC(=O)CCNC(=O)OC(C)(C)C)(CC3)CC4)nc2n(CCC)c1=O | 7.76 | – | – |
| CCCn1c(=O)c2[nH]c(C34CCC(C(=O)NCCNC(=O)CCNC(=O)CCNC(=O)OC(C)(C)C)(CC3)CC4)nc2n(CCC)c1=O | 4.37 | – | – |

More lines, main results first:

| Ki (Adenosine receptor A1 [1]) [nM] | Ki (Adenosine receptor A1 [2]) [nM] | Structure (SMILES) | EC50 (Adenosine receptor A3) [nM] |
| --- | --- | --- | --- |
| 1.7 | 1 | O[C@H]1CC[C@H](Nc2nc(-c3ccccc3)nc3[nH]ccc23)CC1 | – |
| 5.89 | – | CCCn1c(=O)c2[nH]c(C34CC5CC(CC(C5)C3)C4)nc2n(CCCNC(=O)c2ccc(C(=O)NCCNC(=O)CCCCCNC(=O)COc3ccc(/C=C/C4=[N+]5C(=Cc6ccc(-c7cccs7)n6[B-]5(F)F)C=C4)cc3)cc2)c1=O | – |
| 13.8 | – | CCCn1c(=O)c2[nH]c(C34CCC(C(=O)NCCNC(=O)COCCNC(=O)OC(C)(C)C)(CC3)CC4)nc2n(CCC)c1=O | – |
